Among the test systems are 786-0 renal; EKVX NSCLC; IGROV1 ovarian; K-562 leukemia; NCI-H522 lung; OVCAR-5 ovarian; RXF 393 renal; SF-268 CNS; SK-MEL-5 melanoma; M14 melanoma.
Holding throughout (assay): DTP human tumour cell line panel, 48 h

The structures appear in SMILES notation.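 1) Cells in 96-well plates. 2) Compound, 48 h, 5 concentrations. 3) Linear interpolation between surrounding doses. 4) Unreached endpoint = highest concentration. The concentration for 50% growth inhibition is given as GI50. The concentration for full growth arrest is given as TGI.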

On to `COc1cc(CNc2ccc(C(C)C)cc2)cc(OC)c1OC`, for which the TGI (commonly the concentration at which net growth stops) was 30.2 µM with 786-0 renal; greater than 100 µM in the assay on EKVX NSCLC; 70 µM with IGROV1 ovarian; 41.7 µM with K-562 leukemia; 24 µM in the assay on NCI-H522 lung; 69.9 µM in the assay on OVCAR-5 ovarian. The TGI was 14.1 µM in the assay on RXF 393 renal, greater than 100 µM in the assay on SF-268 CNS and 27.9 µM in the assay with SK-MEL-5 melanoma. Also, the GI50 (in general, the concentration that inhibits growth by half) in the assay with NCI-H522 lung was 11.1 µM.
Turning to `COc1cc[nH]c1/C=C1\C(=O)Nc2ccc(F)c(I)c21`, the GI50 in the assay with 786-0 renal, in the assay with IGROV1 ovarian, with K-562 leukemia, in the assay with M14 melanoma, with NCI-H522 lung and in the assay with OVCAR-5 ovarian was greater than 25 µM in each case. For the same compound, the GI50 with RXF 393 renal, in the assay on SF-268 CNS and in the assay with SK-MEL-5 melanoma was greater than 25 µM in each case. The total growth inhibition concentration (TGI) in the assay with 786-0 renal, with IGROV1 ovarian, in the assay on K-562 leukemia, in the assay on M14 melanoma, in the assay on NCI-H522 lung and in the assay on OVCAR-5 ovarian was greater than 25 µM in each case. Moreover, the TGI with RXF 393 renal, in the assay with SF-268 CNS and in the assay on SK-MEL-5 melanoma was greater than 25 µM throughout.
On to `CCN(Cc1ccccc1OC)c1ccc(CO)c(Cl)c1`, for which the GI50 in the assay on 786-0 renal was 13 µM; with IGROV1 ovarian it was 0.0502 µM; in the assay on K-562 leukemia, 2.16 µM; in the assay on M14 melanoma, 12.4 µM; with NCI-H522 lung, 12 µM; in the assay with OVCAR-5 ovarian, 0.123 µM. The GI50 in the assay on RXF 393 renal was 7.61 µM; with SF-268 CNS, 15.1 µM; in the assay with SK-MEL-5 melanoma it was 6.61 µM. Also, the TGI was determined as 26.2 µM with 786-0 renal; 0.337 µM in the assay with IGROV1 ovarian; 12.1 µM in the assay with K-562 leukemia; 25.5 µM in the assay on M14 melanoma; 26.1 µM in the assay on NCI-H522 lung; 0.416 µM in the assay on OVCAR-5 ovarian. Further, the total growth inhibition concentration (TGI) with RXF 393 renal worked out at 24.7 µM; in the assay on SF-268 CNS, 30.7 µM; with SK-MEL-5 melanoma it was 19.9 µM.
For the compound `CCCCN(Cc1ccc(F)cc1)c1ccc(CO)c(Cl)c1`, the GI50 was 12.2 µM with 786-0 renal; 0.677 µM with IGROV1 ovarian; 6.76 µM in the assay with K-562 leukemia; 17.5 µM in the assay with M14 melanoma; 15 µM in the assay on NCI-H522 lung; 0.531 µM with OVCAR-5 ovarian. Moreover, the GI50 was 7.16 µM in the assay with RXF 393 renal, 19.3 µM in the assay with SF-268 CNS and 14.3 µM in the assay on SK-MEL-5 melanoma. The concentration for total growth inhibition (TGI) is 25.6 µM in the assay with 786-0 renal; 3.49 µM in the assay with IGROV1 ovarian; 29.6 µM in the assay with K-562 leukemia; 34.6 µM with M14 melanoma; 30.1 µM with NCI-H522 lung; 2.9 µM with OVCAR-5 ovarian. The TGI was 21.1 µM with RXF 393 renal, 36 µM with SF-268 CNS and 27.5 µM with SK-MEL-5 melanoma.
On to `CC(=O)[O-].CC(=O)[O-].[NH2-].[Pt+2].c1ccc2cnccc2c1`, for which the GI50 was 37.9 µM with 786-0 renal; 24.6 µM in the assay on IGROV1 ovarian; 15.6 µM with K-562 leukemia; 59.1 µM in the assay on M14 melanoma; 12.4 µM in the assay on NCI-H522 lung; greater than 100 µM in the assay with OVCAR-5 ovarian. The GI50 in the assay on RXF 393 renal is 0.0522 µM; with SF-268 CNS, 18.8 µM; with SK-MEL-5 melanoma, 38.4 µM. Further, the concentration for total growth inhibition (TGI) is greater than 100 µM in the assay with 786-0 renal; greater than 100 µM with IGROV1 ovarian; 51.8 µM in the assay with K-562 leukemia; greater than 100 µM in the assay on M14 melanoma; 24.9 µM in the assay on NCI-H522 lung; greater than 100 µM with OVCAR-5 ovarian. In addition, the figures for the TGI with RXF 393 renal, in the assay with SF-268 CNS and with SK-MEL-5 melanoma were 24 µM, greater than 100 µM and greater than 100 µM, respectively.
Regarding `C[C@@H]1COCCN1c1cc(C2(S(C)(=N)=O)CC2)nc(-c2ccnc3[nH]ccc23)n1` (stereo partly specified), the GI50 in the assay with 786-0 renal was 1.25 µM; in the assay with IGROV1 ovarian, 3.63 µM; in the assay on K-562 leukemia, 3.22 µM; in the assay with NCI-H522 lung it was 6.92 µM; with OVCAR-5 ovarian, 3.3 µM; in the assay with RXF 393 renal, 1.46 µM. Also, the GI50 was 6.17 µM in the assay with SF-268 CNS and 4.17 µM with SK-MEL-5 melanoma. Further, the TGI with 786-0 renal was 96.8 µM; in the assay with IGROV1 ovarian it was 63.1 µM; in the assay with K-562 leukemia, greater than 100 µM; in the assay with NCI-H522 lung it was 43.1 µM; in the assay on OVCAR-5 ovarian, 16.7 µM; in the assay with RXF 393 renal it was 6.76 µM. Also, the concentration for total growth inhibition (TGI) in the assay with SF-268 CNS is 39.6 µM; in the assay on SK-MEL-5 melanoma, 35 µM.
With `CC(=O)Oc1ccc(O)c(O)c1C/C=C(\C)CC/C=C(\C)CC/C=C(\C)CCC=C(C)C`, the total growth inhibition concentration (TGI) with 786-0 renal was determined as 2.83 µM; in the assay with EKVX NSCLC it was 3.81 µM; in the assay on M14 melanoma it was 4.98 µM; in the assay on NCI-H522 lung, 6.84 µM; with OVCAR-5 ovarian it was 1.89 µM; in the assay on RXF 393 renal, 2.47 µM. The compound further had a TGI with SF-268 CNS of 2.18 µM.
For the compound `CCc1cc(O)c(Cl)c(C)c1Cl`, the concentration for total growth inhibition (TGI) is 30.8 µM in the assay on 786-0 renal; 33.7 µM in the assay with EKVX NSCLC; 33.8 µM in the assay with IGROV1 ovarian; 63.6 µM with M14 melanoma; 37.6 µM in the assay on NCI-H522 lung; 52.2 µM in the assay on OVCAR-5 ovarian. The TGI with RXF 393 renal was 28.7 µM; in the assay on SF-268 CNS, greater than 100 µM; with SK-MEL-5 melanoma it was 33.3 µM.
For the compound `COc1ccc2c3c(c(=O)n(C)c2c1OC)C=CC(C)(C)O3`, the TGI with 786-0 renal, with EKVX NSCLC, in the assay on IGROV1 ovarian, in the assay with M14 melanoma, with NCI-H522 lung and in the assay with OVCAR-5 ovarian was greater than 100 µM in each case. Moreover, the TGI with RXF 393 renal was greater than 100 µM; in the assay on SF-268 CNS it was greater than 100 µM; in the assay with SK-MEL-5 melanoma, 30.1 µM.
For `O=C(CCl)N1c2ccccc2Sc2c1ccc1ccccc21`, the GI50 in the assay on 786-0 renal is 1.82 µM; with EKVX NSCLC, 12.5 µM; in the assay on K-562 leukemia it was 2.98 µM; in the assay on M14 melanoma, 1.68 µM; in the assay with NCI-H522 lung, 1.76 µM; in the assay on OVCAR-5 ovarian, 2.16 µM. For the same compound, the GI50 with RXF 393 renal was 1.85 µM; in the assay with SF-268 CNS it was 1.88 µM; with SK-MEL-5 melanoma, 1.73 µM. Further, the TGI in the assay on 786-0 renal was determined as 3.27 µM; with EKVX NSCLC, 25.8 µM; in the assay on K-562 leukemia, 13 µM; in the assay on M14 melanoma it was 3.53 µM; in the assay with NCI-H522 lung, 3.46 µM; in the assay with OVCAR-5 ovarian, 5.07 µM. For the same compound, the results for the TGI in the assay on RXF 393 renal, in the assay with SF-268 CNS and in the assay on SK-MEL-5 melanoma were 3.43 µM, 3.47 µM and 3.15 µM, respectively.
